Assay results taken from EP2123641A1, “CRYSTAL, AMORPHOUS FORM AND SALT OF METHYL N-Ý3-(6,7-DIMETHOXY- 2-METHYLAMINOQUINAZOLIN-4-YL)PHENYL¨[…] ACID” (priority 2007, dated 2008).
Read-outs that look alike come from different tables or passages of the source.

What was measured:
Details in all cases: human, 2880 min
CYP1A2 = tested on: CYP1A2
Experimental: (§1) Cryopreserved human hepatocytes (XenoTeek) were rapidly thawed at 37°C, and viable cells were obtained using Hepatocytes Isolation Kit (Nosan Corporation). After cells prepared were diluted with ice cold William's Medium E (10% FBS, +PSG) to give a concentration of 5 x 10^5 viable cells/mL, the cells were seeded onto a 48-well collagen-coated plate (BD Biosciences) at a concentration of 1 x 10^5 cells/cm^2 and cultured at 37°C in 5% CO2 for 24 hours. Then, the medium was replaced with Hepato-STIM (registered trade mark: BD Biosciences) (+EGF, PSG, -FBS), and the cells were further cultured at 37°C in 5% CO2 for 24 hours. […] The culture medium containing test compound, β-NF or Rif was replaced every 24 hours. Test compound, β-NF and Rif were each dissolved in dimethyl sulfoxide (DMSO: Wako Pure Chemical Industries, Ltd.), and culture medium containing test compound (final concentrations; 1, 3 and 10µM), β-NF (final concentration; 10µM) or Rif (final concentration; 10µM) was prepared by adding them to Hepato-STIM(+EGF, PSG, -FBS), respectively. […] The levels of mRNA for CYP1A1 and GAPDH were quantified using SYBR Green PCR Core Reagents Kit (Applied Biosystems), and those for CYP1A2 and that of CYP3A4 were measured using Taqman PCR Core Reagents Kit (Applied Biosystems) and ABI Prism 7900 Sequence Detection System (Applied Biosystems).
(§2) The ability of a test compound to induce CYP1A1 was calculated as follows: Ability of a test compound to induce CYP1A1 (%) = {[(amount of mRNA of CYP1A1 in test compound treated cells)/(amount of mRNA of GAPDH in test compound treated cells)]/[(amount of mRNA of CYP1A1 in control cells)/(amount of mRNA of GAPDH in control cells)] - 1}/{[(amount of mRNA of CYP1A1 in positive control treated cells)/(amount of mRNA of GAPDH in positive control treated cells)]/[(amount of mRNA of CYP1A1 in control cells)/(amount of mRNA of GAPDH in control cells)] -1} x 100 The ability to induce CYP1A2 or CYP3A4 was calculated in the same manner described above.

CYP3A4 = tested on: CYP3A4
Experimental: as §1, §2

CYP1A1 = tested on: CYP1A1
Experimental: Cryopreserved human hepatocytes (XenoTeek) were rapidly thawed at 37°C, and viable cells were obtained using Hepatocytes Isolation Kit (Nosan Corporation). […] Then, the medium was replaced with Hepato-STIM (registered trade mark: BD Biosciences) (+EGF, PSG, -FBS), and the cells were further cultured at 37°C in 5% CO2 for 24 hours. […] The culture medium containing test compound, β-NF or Rif was replaced every 24 hours. […] The levels of mRNA for CYP1A1 and GAPDH were quantified using SYBR Green PCR Core Reagents Kit (Applied Biosystems), and those for CYP1A2 and that of CYP3A4 were measured using Taqman PCR Core Reagents Kit (Applied Biosystems) and ABI Prism 7900 Sequence Detection System (Applied Biosystems).

Row | SMILES | Induction Ability compared to positive control (%) CYP1A2 (CYP1A2; 1 uM) [%] | Induction Ability compared to positive control (%) CYP1A2 (CYP1A2; 3 uM) [%] | Induction Ability compared to positive control (%) CYP1A2 (CYP1A2; 10 uM) [%] | Induction Ability compared to positive control (%) CYP3A4 (CYP3A4; 1 uM) [%] | Induction Ability compared to positive control (%) CYP3A4 (CYP3A4; 3 uM) [%] | Induction Ability compared to positive control (%) CYP3A4 (CYP3A4; 10 uM) [%] | Induction Ability compared to positive control (%) CYP1A1 (CYP1A1; 1 uM) [%] | Induction Ability compared to positive control (%) CYP1A1 (CYP1A1; 3 uM) [%] | Induction Ability compared to positive control (%) CYP1A1 (CYP1A1; 10 uM) [%]
1 | CNc1nc(-c2cccc(NC(=O)c3ccc(C(=O)OC)cc3)c2)c2cc(OC)c(OC)cc2n1 [Example 1, methyl N-[3-(6,7-dimethoxy-2-methylaminoquinazolin-4-yl)phenyl]terephthalamic acid] | -0.1 | -0.7 | 2.5 | -2.4 | -3.4 | -4.0 | 0.1 | 0.6 | 4.6
2 | O=c1cc(-c2ccccc2)oc2ccc3ccccc3c12 [β-naphthoflavone, reference compound] | – | – | – | – | – | – | – | – | 100.0
